Reference: publication PMC12155888, “Design, Synthesis, and Antitumor Biological Evaluation of Galaxamide and Its Analogs” (Molecules, 2025)
Values joined by “and” are separate entries in the source; they are usually repeats but may differ in a detail not shown here. Identical values can stand only once. Like-named read-outs stand apart in the source and are kept apart here.

Legend:
[1] = head-to-tail macrolactamisation of free linear pentapeptide 10 (H-NMeAA...Leu-OH), PyBOP (2 equiv), DMAP (3 equiv); Route E: peptide solution (4.3 mM in MeCN) added dropwise over 10 h to PyBOP/DMAP in MeCN, further 3 h stirring; conditions: the molecule shown is the open-chain precursor; 15-membered ring; CH3CN; 1.0 mM; 20.0 °C; 13.0 h
[2] = amide bond; 15-membered ring; PyBOP/DMAP; MeCN; 4.3 mM

Row | Compound | ring closure, isolated yield [1] | ring closure, isolated yield [2]
1 | CN[C@H](CC(C)C)C(=O)N[C@H](CC(C)C)C(=O)N[C@H](CC(C)C)C(=O)N(C)[C@H](CC(C)C)C(=O)N[C@H](CC(C)C)C(=O)O [H-D-N(Me)Leu-D-Leu-D-Leu-D-N(Me)Leu-D-Leu-OH] | 48% | 
2 | CN[C@H](CC(C)C)C(=O)N[C@H](CC(C)C)C(=O)N[C@@H](CC(C)C)C(=O)N(C)[C@H](CC(C)C)C(=O)N[C@H](CC(C)C)C(=O)O [H-D-N(Me)Leu-D-Leu-Leu-D-N(Me)Leu-D-Leu-OH] | 50% | 
3 | CN[C@H](CC(C)C)C(=O)N[C@@H](CC(C)C)C(=O)N[C@H](CC(C)C)C(=O)N(C)[C@H](CC(C)C)C(=O)N[C@@H](CC(C)C)C(=O)O [H-D-N(Me)Leu-Leu-D-Leu-D-N(Me)Leu-Leu-OH] | 45% | 
4 | CN[C@H](CC(C)C)C(=O)N[C@@H](CC(C)C)C(=O)N[C@@H](CC(C)C)C(=O)N(C)[C@H](CC(C)C)C(=O)N[C@@H](CC(C)C)C(=O)O [H-D-N(Me)Leu-Leu-Leu-D-N(Me)Leu-Leu-OH] | 48% | 
5 | CN[C@@H](CC(C)C)C(=O)N[C@H](CC(C)C)C(=O)N[C@H](CC(C)C)C(=O)N(C)[C@@H](CC(C)C)C(=O)N[C@H](CC(C)C)C(=O)O [H-N(Me)Leu-D-Leu-D-Leu-N(Me)Leu-D-Leu-OH] | 54% | 
6 | CN[C@@H](CC(C)C)C(=O)N[C@H](CC(C)C)C(=O)N[C@@H](CC(C)C)C(=O)N(C)[C@@H](CC(C)C)C(=O)N[C@H](CC(C)C)C(=O)O [H-N(Me)Leu-D-Leu-Leu-N(Me)Leu-D-Leu-OH] | 45% | 
7 | CN[C@@H](CC(C)C)C(=O)N[C@@H](CC(C)C)C(=O)N[C@H](C)C(=O)N(C)[C@@H](CC(C)C)C(=O)N[C@@H](CC(C)C)C(=O)O [H-N(Me)Leu-Leu-D-Ala-N(Me)Leu-Leu-OH] | 49% | 
8 | CN[C@@H](CC(C)C)C(=O)N[C@@H](CC(C)C)C(=O)N[C@H](CC(=O)OC)C(=O)N(C)[C@@H](CC(C)C)C(=O)N[C@@H](CC(C)C)C(=O)O [H-N(Me)Leu-Leu-D-Asp(OMe)-N(Me)Leu-Leu-OH] | 52% | 
9 | CN[C@@H](CC(C)C)C(=O)N[C@@H](CC(C)C)C(=O)N[C@@H](C(=O)N(C)[C@@H](CC(C)C)C(=O)N[C@@H](CC(C)C)C(=O)O)C1CCCCC1 [H-N(Me)Leu-Leu-D-Chg-N(Me)Leu-Leu-OH] | 51% | 
10 | CN[C@@H](CC(C)C)C(=O)N[C@@H](CC(C)C)C(=O)N[C@H](CC(C)C)C(=O)N(C)[C@@H](CC(C)C)C(=O)N[C@@H](CC(C)C)C(=O)O [H-N(Me)Leu-Leu-D-Leu-N(Me)Leu-Leu-OH] | 45% | 
11 | CN[C@@H](CC(C)C)C(=O)N[C@@H](CC(C)C)C(=O)N[C@H](CCSC)C(=O)N(C)[C@@H](CC(C)C)C(=O)N[C@@H](CC(C)C)C(=O)O [H-N(Me)Leu-Leu-D-Met-N(Me)Leu-Leu-OH] | 52% | 
12 | CN[C@@H](CC(C)C)C(=O)N[C@@H](CC(C)C)C(=O)N[C@H](Cc1ccccc1C)C(=O)N(C)[C@@H](CC(C)C)C(=O)N[C@@H](CC(C)C)C(=O)O [H-N(Me)Leu-Leu-D-Phe(2-Me)-N(Me)Leu-Leu-OH] | 53% | 
13 | CN[C@@H](CC(C)C)C(=O)N[C@@H](CC(C)C)C(=O)N[C@H](Cc1cccc(F)c1)C(=O)N(C)[C@@H](CC(C)C)C(=O)N[C@@H](CC(C)C)C(=O)O [H-N(Me)Leu-Leu-D-Phe(3-F)-N(Me)Leu-Leu-OH] | 53% | 
14 | CN[C@@H](CC(C)C)C(=O)N[C@@H](CC(C)C)C(=O)N[C@H](Cc1cccc(C)c1)C(=O)N(C)[C@@H](CC(C)C)C(=O)N[C@@H](CC(C)C)C(=O)O [H-N(Me)Leu-Leu-D-Phe(3-Me)-N(Me)Leu-Leu-OH] | 53% | 
15 | CN[C@@H](CC(C)C)C(=O)N[C@@H](CC(C)C)C(=O)N[C@H](Cc1ccc(Br)cc1)C(=O)N(C)[C@@H](CC(C)C)C(=O)N[C@@H](CC(C)C)C(=O)O [H-N(Me)Leu-Leu-D-Phe(4-Br)-N(Me)Leu-Leu-OH] | 55% | 
16 | CN[C@@H](CC(C)C)C(=O)N[C@@H](CC(C)C)C(=O)N[C@H](Cc1ccc(Cl)cc1)C(=O)N(C)[C@@H](CC(C)C)C(=O)N[C@@H](CC(C)C)C(=O)O [H-N(Me)Leu-Leu-D-Phe(4-Cl)-N(Me)Leu-Leu-OH] | 55% | 
17 | CN[C@@H](CC(C)C)C(=O)N[C@@H](CC(C)C)C(=O)N[C@H](Cc1ccc(C)cc1)C(=O)N(C)[C@@H](CC(C)C)C(=O)N[C@@H](CC(C)C)C(=O)O [H-N(Me)Leu-Leu-D-Phe(4-Me)-N(Me)Leu-Leu-OH] | 50% | 
18 | CN[C@@H](CC(C)C)C(=O)N[C@@H](CC(C)C)C(=O)N[C@H](Cc1ccccc1)C(=O)N(C)[C@@H](CC(C)C)C(=O)N[C@@H](CC(C)C)C(=O)O [H-N(Me)Leu-Leu-D-Phe-N(Me)Leu-Leu-OH] | 51% | 

Row | Compound | ring closure, isolated yield [1] | ring closure, isolated yield [2]
19 | CN[C@@H](CC(C)C)C(=O)N[C@@H](CC(C)C)C(=O)N[C@@H](C(=O)N(C)[C@@H](CC(C)C)C(=O)N[C@@H](CC(C)C)C(=O)O)c1ccccc1 [H-N(Me)Leu-Leu-D-Phg-N(Me)Leu-Leu-OH] | 51% | 
20 | CN[C@@H](CC(C)C)C(=O)N[C@@H](CC(C)C)C(=O)N1CCC[C@@H]1C(=O)N(C)[C@@H](CC(C)C)C(=O)N[C@@H](CC(C)C)C(=O)O [H-N(Me)Leu-Leu-D-Pro-N(Me)Leu-Leu-OH] | 51% | 
21 | CN[C@@H](CC(C)C)C(=O)N[C@@H](CC(C)C)C(=O)N[C@H](COC)C(=O)N(C)[C@@H](CC(C)C)C(=O)N[C@@H](CC(C)C)C(=O)O [H-N(Me)Leu-Leu-D-Ser(OMe)-N(Me)Leu-Leu-OH] | 52% | 
22 | CN[C@@H](CC(C)C)C(=O)N[C@@H](CC(C)C)C(=O)N[C@H](Cc1ccc(OC)cc1)C(=O)N(C)[C@@H](CC(C)C)C(=O)N[C@@H](CC(C)C)C(=O)O [H-N(Me)Leu-Leu-D-Tyr(OMe)-N(Me)Leu-Leu-OH] | 52% | 
23 | CN[C@@H](CC(C)C)C(=O)N[C@@H](CC(C)C)C(=O)N[C@@H](C(=O)N(C)[C@@H](CC(C)C)C(=O)N[C@@H](CC(C)C)C(=O)O)C(C)C [H-N(Me)Leu-Leu-D-Val-N(Me)Leu-Leu-OH] | 50% | 
24 | CN[C@@H](CC(C)C)C(=O)N[C@@H](CC(C)C)C(=O)NCC(=O)N(C)[C@@H](CC(C)C)C(=O)N[C@@H](CC(C)C)C(=O)O [H-N(Me)Leu-Leu-Gly-N(Me)Leu-Leu-OH] | 51% | 
25 | Cyclo(Me-D-Leu-D-Leu-D-Leu-Me-D-Leu-D-Leu) |  | 48%
26 | Cyclo(Me-D-Leu-D-Leu-L-Leu-Me-D-Leu-D-Leu) |  | 50%
27 | Cyclo(Me-D-Leu-L-Leu-D-Leu-Me-D-Leu-L-Leu) |  | 45%
28 | Cyclo(Me-D-Leu-L-Leu-L-Leu-Me-D-Leu-L-Leu) |  | 48%
29 | Cyclo(Me-L-Leu-D-Leu-D-Leu-Me-L-Leu-D-Leu) |  | 54%
30 | Cyclo(Me-L-Leu-D-Leu-L-Leu-Me-L-Leu-D-Leu) |  | 45%
31 | Cyclo(Me-L-Leu-L-Leu-2-Me-D-Phe-Me-L-Leu-L-Leu) |  | 53%
32 | Cyclo(Me-L-Leu-L-Leu-3-Flu-D-Phe-Me-L-Leu-L-Leu) |  | 53%
33 | Cyclo(Me-L-Leu-L-Leu-3-Me-D-Phe-Me-L-Leu-L-Leu) |  | 53% and 50%
34 | Cyclo(Me-L-Leu-L-Leu-4-Bro-D-Phe-Me-L-Leu-L-Leu) |  | 55%
35 | Cyclo(Me-L-Leu-L-Leu-4-Chl-D-Phe-Me-L-Leu-L-Leu) |  | 55%
36 | Cyclo(Me-L-Leu-L-Leu-D-Ala-Me-L-Leu-L-Leu) |  | 49%
